In patent publication US20020035111A1, “Method of inhibiting neoplastic cells with tetracyclic pyrido[3,4-B] indole derivatives” (priority 1998, published 2002):

| SMILES | melting point [°C] |
| --- | --- |
| COc1ccc([C@H]2c3[nH]c4ccccc4c3C[C@@H]3C(=O)N(CC(F)(F)F)CC(=O)N23)cc1 (relative stereo) [Example 28, Cis-2,3,6,7,12,12a-Hexahydro-6-(4-Methoxyphenyl)-2-(2,2,2-Trifluoroethyl)Pyrazino(2′,1′:6,1)Pyrido(3,4-b)Indole-1,4-Dione] | 232 |
| C[C@@H]1NC(=O)[C@H]2Cc3c([nH]c4ccccc34)[C@@H](c3ccc4occc4c3)N2C1=O [Example 123, (3S, 6R, 12aR)-2,3,6,7, 12, 12a-Hexahydro-6-(5-Benzofuranyl)-3-Methyl-Pyrazino[2′,1′:6,1]Pyrido [3,4-b]Indole-1,4-Dione] | 150 to 151 |
| COc1ccc([C@H]2c3[nH]c4ccccc4c3C[C@@H]3C(=O)N(Cc4ccccc4)CC(=O)N23)cc1 (relative stereo) [Example 32, Cis-2,3,6,7,12,12a-Hexahydro-2-Benzyl-6-(4-Methoxyphenyl)Pyrazino(2′,1′:6,1)Pyrido(3,4-b)Indole-1,4-Dione] | 275 to 279 |
| O=C1[C@H]2Cc3c([nH]c4ccccc34)[C@H](c3ccc4c(c3)OCO4)N2C(=O)CN1Cc1cccnc1 (relative stereo) [Example 11, Cis-2,3,6,7,12,12a-Hexahydro-2-(3-Pyridylmethyl)-6-(3,4-Methylenedioxyphenyl)-Pyrazino(2′,1′:6,1)Pyrido(3,4-b)Indole-1,4-Dione] | 292 to 293 |
| O=C1[C@H]2Cc3c([nH]c4ccccc34)[C@H](c3ccc4c(c3)OCO4)N2C(=O)CN1Cc1ccccc1 (relative stereo) [Example 23, Cis-2,3,6,7,12,12a-Hexahydro-2-Benzyl-6-(3,4-Methylenedioxyphenyl)Pyrazino(2′,1′:6,1)Pyrido(3,4-b)Indole-1,4-Dione] | 285 to 287 |
| O=C1[C@H]2Cc3c([nH]c4ccccc34)[C@H](c3ccc4c(c3)OCO4)N2C(=O)CN1CC(F)(F)F (relative stereo) [Example 14, Cis-2,3,6,7,12,12a-Hexahydro-2-(2,2,2-Trifluoroethyl)-6-(3,4-Methylenedioxyphenyl)-Pyrazino(2′,1′:6,1)Pyrido(3,4-b)Indole-1,4-Dione] | 303 |
| CC(C)N1CC(=O)N2[C@H](c3ccc4occc4c3)c3[nH]c4ccccc4c3C[C@@H]2C1=O [Example 122, (6R, 12aR)-2,3,6,7, 12, 12a-Hexahydro-6-(5-Benzofuranyl)-2-Isopropyl-Pyrazino [2′,1′:6,1]Pyrido [3,4-B]Indole-1,4-Dione] | 291 to 292 |

More lines, now with the values ahead:

| melting point [°C] | SMILES |
| --- | --- |
| 194 | CCCCN1CC(=O)N2[C@@H](c3ccc(C)cc3)c3[nH]c4ccccc4c3C[C@@H]2C1=O (relative stereo) [Example 63, Cis-2,3,6,7,12,12a-Hexahydro-2-Butyl-6-(4-Methylphenyl)-Pyrazino(2′,1′:6,1)Pyrido(3,4-b)Indole-1,4-Dione] |
| 282 | Cc1ccc([C@H]2c3[nH]c4ccccc4c3C[C@@H]3C(=O)N(C)CC(=O)N23)s1 (relative stereo) [Example 56, Cis-2,3,6,7,12,12a-Hexahydro-2-Methyl-6-(5-Methyl-2-Thienyl)Pyrazino(2′,1′:6,1)Pyrido(3,4-b)Indole-1,4-Dione] |
| 236 to 239 | CCCCN1CC(=O)N2[C@@H](c3ccsc3)c3[nH]c4ccccc4c3C[C@@H]2C1=O (relative stereo) [Example 58, Cis-2,3,6,7,12,12a-Hexahydro-2-Butyl-6-(3-Thienyl)-Pyrazino(2′,1′:6,1)Pyrido(3,4-b)Indole-1,4-Dione] |
| 292 | CN1CC(=O)N2[C@@H](c3cc(Br)cs3)c3[nH]c4ccccc4c3C[C@@H]2C1=O (relative stereo) [Example 53, Cis-2,3,6,7,12,12a-Hexahydro-6-(4-Bromo-2-Thienyl)-2-Methylpyrazino(2′,1′:6,1)Pyrido(3,4-b)Indole-1,4-Dione] |
